Assay [1] has as its target T1, hTRPA1 (Homo sapiens, UniProt O75762).
T1 construct: gene TRPA1
Nature of the assay: FLIPR calcium assay (agonism) in HEK293 cells with inducible hTRPA1; non-expressing HEK293 control. It is filed as cell-based.

Assay [2] has as its target T2, rTRPA1 (Rattus norvegicus, UniProt Q6RI86).
T2 construct: gene Trpa1
The assay can be described thus: FLIPR calcium assay in HEK293 cells with inducible rTRPA1 ([…] of maximal AITC response at […]; desensitization to AITC). It is filed as cell-based.

T1 sequence (O75762 whole entry): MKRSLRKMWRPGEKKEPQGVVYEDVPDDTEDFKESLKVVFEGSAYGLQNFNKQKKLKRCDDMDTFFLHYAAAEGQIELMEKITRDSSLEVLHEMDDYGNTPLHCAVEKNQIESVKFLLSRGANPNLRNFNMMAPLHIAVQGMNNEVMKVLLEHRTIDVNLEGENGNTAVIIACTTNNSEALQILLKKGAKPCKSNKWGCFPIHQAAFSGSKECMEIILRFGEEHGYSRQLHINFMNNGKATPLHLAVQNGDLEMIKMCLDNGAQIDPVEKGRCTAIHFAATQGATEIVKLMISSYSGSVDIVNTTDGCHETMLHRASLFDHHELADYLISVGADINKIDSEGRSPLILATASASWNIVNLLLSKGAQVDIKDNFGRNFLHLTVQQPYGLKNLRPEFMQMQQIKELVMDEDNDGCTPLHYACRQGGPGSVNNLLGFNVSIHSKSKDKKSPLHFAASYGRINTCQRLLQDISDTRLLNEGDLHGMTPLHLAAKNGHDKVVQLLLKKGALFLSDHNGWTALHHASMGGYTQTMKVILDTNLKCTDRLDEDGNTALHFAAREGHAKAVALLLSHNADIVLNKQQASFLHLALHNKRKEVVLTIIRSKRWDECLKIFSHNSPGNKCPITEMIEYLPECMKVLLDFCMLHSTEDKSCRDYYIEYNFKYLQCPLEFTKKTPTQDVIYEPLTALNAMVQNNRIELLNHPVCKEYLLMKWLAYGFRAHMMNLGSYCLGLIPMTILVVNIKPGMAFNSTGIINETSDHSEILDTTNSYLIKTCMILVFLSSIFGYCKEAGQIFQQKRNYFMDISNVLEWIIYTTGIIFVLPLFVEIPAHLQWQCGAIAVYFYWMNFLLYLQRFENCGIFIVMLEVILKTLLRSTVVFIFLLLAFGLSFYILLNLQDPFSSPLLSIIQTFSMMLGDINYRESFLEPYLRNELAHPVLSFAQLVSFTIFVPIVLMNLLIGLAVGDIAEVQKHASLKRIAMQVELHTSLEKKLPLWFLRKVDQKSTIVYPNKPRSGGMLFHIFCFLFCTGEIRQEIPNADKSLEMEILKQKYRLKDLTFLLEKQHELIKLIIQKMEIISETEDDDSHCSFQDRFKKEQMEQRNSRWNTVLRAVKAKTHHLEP
T2 sequence (Q6RI86 whole entry): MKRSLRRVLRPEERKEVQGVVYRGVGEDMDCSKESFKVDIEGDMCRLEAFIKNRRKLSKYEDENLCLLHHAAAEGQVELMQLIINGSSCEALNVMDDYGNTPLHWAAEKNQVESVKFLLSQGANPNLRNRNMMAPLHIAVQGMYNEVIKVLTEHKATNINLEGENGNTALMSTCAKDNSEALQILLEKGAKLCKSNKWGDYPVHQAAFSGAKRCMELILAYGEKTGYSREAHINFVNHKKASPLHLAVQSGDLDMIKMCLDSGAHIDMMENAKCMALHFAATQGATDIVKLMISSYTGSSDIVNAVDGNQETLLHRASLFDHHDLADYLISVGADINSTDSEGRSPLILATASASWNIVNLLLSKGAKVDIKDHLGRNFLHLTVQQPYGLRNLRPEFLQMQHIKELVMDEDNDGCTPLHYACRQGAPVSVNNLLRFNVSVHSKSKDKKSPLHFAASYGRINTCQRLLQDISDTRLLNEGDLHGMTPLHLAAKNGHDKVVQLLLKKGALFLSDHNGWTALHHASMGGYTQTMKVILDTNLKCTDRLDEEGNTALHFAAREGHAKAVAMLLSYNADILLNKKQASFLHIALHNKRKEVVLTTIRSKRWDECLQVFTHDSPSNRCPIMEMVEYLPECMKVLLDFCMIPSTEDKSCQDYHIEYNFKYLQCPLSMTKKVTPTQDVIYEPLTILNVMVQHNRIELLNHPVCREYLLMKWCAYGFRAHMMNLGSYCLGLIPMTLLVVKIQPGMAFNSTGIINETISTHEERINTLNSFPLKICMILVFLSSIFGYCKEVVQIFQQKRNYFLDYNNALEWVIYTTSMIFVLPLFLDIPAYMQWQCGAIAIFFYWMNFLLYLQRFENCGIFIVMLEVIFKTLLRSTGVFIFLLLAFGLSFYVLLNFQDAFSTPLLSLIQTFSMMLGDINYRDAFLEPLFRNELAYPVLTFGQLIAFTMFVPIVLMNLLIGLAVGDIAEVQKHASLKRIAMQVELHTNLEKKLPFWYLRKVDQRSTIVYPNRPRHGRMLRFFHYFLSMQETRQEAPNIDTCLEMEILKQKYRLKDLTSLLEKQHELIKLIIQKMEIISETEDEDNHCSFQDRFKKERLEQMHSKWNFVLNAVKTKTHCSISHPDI

In general, EC50 refers to the concentration needed to bring the measured effect to its halfway point. As for `Oc1cc(O)cc(/C=C/c2ccccc2)c1` [Pinosylvin], the EC50 in assay [1] worked out at 12 ± 1.1 µM.
For orientation: Emax means the maximal effect, on the per cent scale that the assay sets. Regarding `Oc1ccc(/C=C/c2cc(O)cc(O)c2)cc1` [Resveratrol], the Emax at 100 µM in assay [2] was 35%. In addition, in assay [1], the concentration for a half-maximal effect (EC50) is 3.2 ± 0.2 µM.
`COc1cc(O)cc(/C=C/c2ccccc2)c1` [pinosylvin monomethyl ether]: the EC50 in assay [1] was 11.2 ± 0.8 µM.
